Experimental data as given in patent publication US20040024293A1, “Methods and systems for analyzing complex biological systems” (priority 2001, published 2004).

Legend:
Arabidopsis thaliana = experiment: Phenotypic profiling of Arabidopsis sprayed with unknown and commercial herbicides (MOA1); format: in vivo
[1] = test system: Saccharomyces cerevisiae wild type strain BY4743; experiment: Metabolite analysis (GC-MS, LC-MS) of yeast cells treated with antifungal drugs (AF1); format: cell-based; conditions: for Fold Change of NacetylDglucosamine: metabolite NacetylDglucosamine; for Fold Change of phosphoenolpyruvate: metabolite phosphoenolpyruvate; for Fold Change of thymine: metabolite thymine; for Fold Change of urocanic acid: metabolite urocanic acid; for Fold Change of zeatin: metabolite zeatin
[2] = test system: Saccharomyces cerevisiae wild type strain BY4743; experiment: Combined gene expression and metabolite data mapped to KEGG reactions and pathways (AF1); format: cell-based; conditions: yeast
Excerpt: In AF1, two different technologies were utilized: gene expression analysis (for examination of mRNA expression) and metabolite analysis. […] As noted previously, existing metabolic databases may be helpful in practicing the methods and systems of the present invention, but many databases include limitations that make their use in data analysis and pathway mapping less than straightforward. […] This caveat to KEGG makes it difficult to pinpoint the correct pathway when attempting to link a gene to a specific pathway. […] The pathway score indicates how meaningful the mapping is, or how likely it is to be correctly indicative of the pathway involved in the perturbation under examination. The method provides a pathway score based on perturbation levels of genes. and/or compounds and the information content of each gene and/or compound in the pathway, i.e., a pathway score indicates the extent to which other pathways are mapped to a gene/compound. For example, imagine that two genes are perturbed in a particular experiment. One gene maps to only one pathway, giving a high degree of probability that the perturbed pathway is the one identified in the mapping. The second gene maps to three pathways. In the later example, there is only one-third the probability that the pathway identified in the mapping is the one perturbed. The present invention provides a method for calculating the pathway scores, so that more weight is given to a score of a gene or compound that maps to only one pathway than to a score of a gene or compound that maps to multiple pathways. […] Where n=the total number of genes in the pathway; ipath—count=the number of pathways containing a gene; and j=the number of genes in the pathway that are perturbed. Another factor to be considered when weighting a pathway score is the degree of perturbation. Degree of perturbation can be calculated, for example, based on a number of standard deviations from a norm, and included in an equation such as the one shown above, so that not only the number of pathways is taken into account, but also accounts for the amount of gene transcript or compound present as compared to a control. Compounds were also linked to pathways using the KEGG database. KEGG links 676 compounds measured in AF1 to a total of 92 pathways. Of the 676 compounds under consideration, 77 were detected in the AF1 samples. […] The multiple mapping feature of KEGG makes it difficult to pinpoint the correct pathway when trying to link a compound to a specific pathway. […] A pathway score calculation is applied to the compounds to account for both information content (number of pathways a compound maps to) and perturbation level. […]

[3] = test system: Saccharomyces cerevisiae wild type strain BY4743; experiment: Gene expression analysis of yeast cells treated with antifungal drugs (AF1); format: cell-based; conditions: p < 0.05; KEGG pathway mapping of gene expression data
Experimental: Saccharomyces cerevisiae wild type strain BY4743 was purchased from American Type Culture Center (ATCC, Manassas, Va.). The yeast strain was grown in YPD or SD media. […] The cultures started from fresh single colonies were grown in 1.0 ml YPD overnight at 30° C. […] The OD600 was adjusted to 1.0 with YPD media, then 2.0 ml of each was inoculated into three 250 ml flasks, each containing 50 ml of SD media. […] The cells were kept growing for another two hours, then collected by centrifugation at 4000 rpm for 5 minutes at 4° C. Pellets were washed once with ice-cold water, then were lyophilized overnight at 4° C. […] RNA quality was determined using the Bioanalyzer 2100 and the RNA 6000 assay (Agilent Technologies, Palo Alto, Calif.) according to manufacturer's instructions. RNA concentrations were determined spectrophotometrically by measuring the absorption at 260 nm in an Ultrospec 2000 (Pharmacia Biotech, Piscataway, N.J.). […] Labeled cRNAs were evaluated using the RNA 6000 assay on the Agilent Bioanalyzer 2100. Labeled cRNA concentrations were determined spectrophotometrically by measuring the absorption at 260 nm in an Ultrospec 2000 (Pharmacia Biotech, Piscataway, N.J.). […] Each feature was determined from an array's associated pattern file and a detection algorithm. […] Data was evaluated after combining results from fluor reversal replicate hybridizations. […]

CC(C)OC(=O)Nc1cccc(Cl)c1 [Chloropropham]
herbicidal phenotype in words (Arabidopsis thaliana): neither showed a strong herbicidal phenotype

Nc1nc[nH]n1 [Amitrole]
herbicidal phenotype in words (Arabidopsis thaliana): chlorosis and not true bleaching

CC[C@@H]([C@H](C)O)n1ncn(-c2ccc(N3CCN(c4ccc(OC[C@@H]5CO[C@@](Cn6cncn6)(c6ccc(F)cc6F)C5)cc4)CC3)cc2)c1=O [Posaconazole]
Fold Change: aspartic acid ([1]; GC): −0.071 | Fold Change: campesterol ([1]; GC): 0 | Fold Change: desmosterol ([1]; GC): 0 | Fold Change: iso citric acid ([1]; GC): 0.4 | Fold Change of NacetylDglucosamine ([1]; platform nLC, p-Value 1): 0 | Fold Change of NacetylDglucosamine ([1]; platform pLC, p-Value 1): 0 | Fold Change of NacetylLglutamate ([1]; metabolite NacetylLglutamate, platform pLC, p-Value 1): 0 | Fold Change of NacetylLornithine ([1]; metabolite NacetylLornithine, platform nLC, p-Value 1): 0 | Fold Change of niacinamide ([1]; metabolite niacinamide, platform pLC, p-Value 1): 0 | Fold Change of nopaline ([1]; metabolite nopaline, platform pLC, p-Value 1): 0 | Fold Change of ornithine3 ([1]; metabolite ornithine3, platform GC, p-Value 0.965157424): 0.041 | Fold Change of orotic acid ([1]; metabolite orotic acid, platform nLC, p-Value 1): 0 | Fold Change of phenylpyruvic acid ([1]; metabolite phenylpyruvic acid, platform nLC, p-Value 1): 0 | Fold Change of phosphoenolpyruvate ([1]; platform nLC, p-Value 1): 0 | Fold Change of phosphoenolpyruvate ([1]; platform pLC, p-Value 1): 0 | Fold Change of pinitol ([1]; metabolite pinitol, platform nLC, p-Value 1): 0 | Fold Change of porphobilinogen ([1]; metabolite porphobilinogen, platform nLC, p-Value 1): 0 | Fold Change of progesterone ([1]; metabolite progesterone, platform pLC, p-Value 1): 0 | Fold Change of retinoic acid ([1]; metabolite retinoic acid, platform nLC, p-Value 1): 0 | Fold Change of riboflavin ([1]; metabolite riboflavin, platform pLC, p-Value 1): 0 | Fold Change of salicylic/HObenzoic ([1]; metabolite salicylic/HObenzoic, platform nLC, p-Value 1): 0 | Fold Change of shikimic acid ([1]; metabolite shikimic acid, platform nLC, p-Value 1): 0 | Fold Change of sinapinic acid ([1]; metabolite sinapinic acid, platform nLC, p-Value 1): 0 | Fold Change of sugar-phosphate ([1]; metabolite sugar-phosphate, platform pLC, p-Value 1): 0 | Fold Change of thiamine ([1]; metabolite thiamine, platform pLC, p-Value 1): 0 | Fold Change of thymine ([1]; platform nLC, p-Value 1): 0 | Fold Change of thymine ([1]; platform pLC, p-Value 1): 0 | Fold Change of tryptophan ([1]; metabolite tryptophan, platform pLC, p-Value 1): 0 | Fold Change of uric acid ([1]; metabolite uric acid, platform pLC, p-Value 1): 0 | Fold Change of urocanic acid ([1]; platform nLC, p-Value 1): 0 | Fold Change of urocanic acid ([1]; platform pLC, p-Value 1): 0 | Fold Change of xanthosine(diH2O) ([1]; metabolite xanthosine(diH2O), platform pLC, p-Value 1): 0 | Fold Change of xanthosineDiH2O ([1]; metabolite xanthosineDiH2O, platform nLC, p-Value 1): 0 | Fold Change of zeatin ([1]; platform nLC, p-Value 1): 0 | Fold Change of zeatin ([1]; platform pLC, p-Value 1): 0 | Fold Change: 4-methylcatechol ([1]; nLC): 0 | Fold Change: 5hydroxyLtryptophan ([1]; nLC): 0 | Fold Change: 6-benzylaminopurine ([1]; nLC): 0 | Fold Change: abscisic acid ([1]; nLC): 0 | Fold Change: adenine ([1]; nLC): 0 | Fold Change: anthranilic acid ([1]; nLC): 0 | Fold Change: benzoic acid ([1]; nLC): 0 | Fold Change: catechol ([1]; nLC): 0 | Fold Change: cinnamic acid ([1]; nLC): 0 | Fold Change: citricanoic/itaconi ([1]; nLC): 0 | Fold Change: coumaric acid ([1]; nLC): 0 | Fold Change: cytosine ([1]; nLC): 0 | Fold Change: diaminopimelic acid ([1]; nLC): 0 | Fold Change: dihydrofolic acid ([1]; nLC): 0 | Fold Change: estrone ([1]; nLC): 0 | Fold Change: farnesol ([1]; nLC): 0 | Fold Change: folic acid ([1]; nLC): 0 | Fold Change: gibberellic ([1]; nLC): 0 | Fold Change: guanine ([1]; nLC): 0 | Fold Change: histidine ([1]; nLC): 0 | Fold Change: homogentisic/uric ([1]; nLC): 0 | Fold Change: hydrocortisone ([1]; nLC): 0 | Fold Change: indole3pyruvic acid ([1]; nLC): 0 | Fold Change: jasmonic acid ([1]; nLC): 0 | Fold Change: kinetin ([1]; nLC): 0 | Fold Change: luteolin ([1]; nLC): 0 | Fold Change: malonic acid ([1]; nLC): 0 | Fold Change: methionine ([1]; nLC): 0 | Fold Change: 4-aminobenzoic acid ([1]; pLC): 0 | Fold Change: 4-methylcatechol ([1]; pLC): 0 | Fold Change: 5hydroxyLtryptophan ([1]; pLC): 0 | Fold Change: 6benzylaminopurine ([1]; pLC): 0 | Fold Change: abscisic acid ([1]; pLC): 0 | Fold Change: adenosine ([1]; pLC): 0 | Fold Change: allantoic acid ([1]; pLC): 0 | Fold Change: anthranilic acid ([1]; pLC): 0 | Fold Change: argininosuccinate ([1]; pLC): 0 | Fold Change: biotin ([1]; pLC): 0 | Fold Change: caffeine ([1]; pLC): 0 | Fold Change: citric acid TME ([1]; pLC): 0 | Fold Change: cytidine ([1]; pLC): 0 | Fold Change: diaminopimelic acid ([1]; pLC): 0 | Fold Change: dihydrofolic acid ([1]; pLC): 0 | Fold Change: dipicolinic acid ([1]; pLC): 0 | Fold Change: folic acid ([1]; pLC): 0 | Fold Change: glucosamine ([1]; pLC): 0 | Fold Change: glucosamine6PO4 ([1]; pLC): 0 | Fold Change: histidine ([1]; pLC): 0 | Fold Change: hydrocortisone ([1]; pLC): 0 | Fold Change: itaconic acid dimes ([1]; pLC): 0 | Fold Change: kinetin ([1]; pLC): 0 | Fold Change: luteolin ([1]; pLC): 0 | # Reactions (Number Of Pathways Having at Least One Enzyme and One Compound Perturbed) [2]: 3

CCSC(=O)N(CC(C)C)CC(C)C [Butylate]
herbicidal phenotype in words (Arabidopsis thaliana): neither showed a strong herbicidal phenotype

C[C@@H]1[C@H](O)[C@@H](C)/C=C/C=C/C=C/C=C/C=C/C=C/C=C/[C@H](O[C@@H]2O[C@H](C)[C@@H](O)[C@H](N)[C@@H]2O)C[C@@H]2O[C@](O)(C[C@@H](O)C[C@@H](O)[C@H](O)CC[C@@H](O)C[C@@H](O)CC(=O)O[C@H]1C)C[C@H](O)[C@H]2C(=O)O [Amphoteracin B]
# Pathways affected by at least one gene [3]: 97 | # Reactions (Number Of Pathways Having at Least One Enzyme and One Compound Perturbed) [2]: 37
